Measured values published in US11945822B2, “Pyrazolo-triazine and/or pyrazolo-pxrimidine derivatives as selective inhibitor of cyclin dependent kinase” (QURIENT CO., LTD., priority 2018, dated 2024).

Tested on: H460
Assay: Cellular H460 viability assay (CellTiter-Glo, 72 hours)
Assay type: cell-based
Conditions: Homo sapiens, NCI-H460
In short: (§1)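 Steps: seed cells at per-line density; add compound, DMSO vehicle kept under 0.1% final; incubate 72 h, 37 °C, 5% CO2; lyse with CellTiter-Glo and read luminescence; run in duplicate.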

| IC50 [nM] | Compound |
| --- | --- |
| < 1000 | CC(C)c1cnn2c(NCc3ccccc3-c3nc4ccccc4n3C)nc(N3CCC(N)CC3)nc12 [Compound 96] |
| 1000 to 10000 | CC(C)c1cnn2c(NCc3ccccc3-n3cc4cc(-c5ccccc5)ccc4n3)nc(N3CCC(N)CC3)nc12 [Compound 101] |
| 1000 to 10000 | CC(C)c1cnn2c(NCc3cccc4ccc(-n5cccn5)nc34)nc(N3CCC(N)CC3)nc12 [Compound 59] |

Target: T1, CDK2/Cyclin A (Homo sapiens, UniProt P24941)
T1 construct: purchased Invitrogen PV6290
Assay: Enzymatic assay for CDK2 (FRET based LANCE Ultra kinase assay)
Assay type: biochemical
Conditions: read-out: CDK2 enzymatic activity (IC50 range)
In short: (§2)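 LANCE Ultra TR-FRET: ULight-MBP peptide (68 nM) with ATP at Km, […], 60 min at 23° C. EDTA plus Eu-anti-phospho-MBP added, another 60 min, then 665/615 nm emission read. Compounds tested as 8-dose 4-fold DMSO dilutions.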

| IC50 [nM] | Compound |
| --- | --- |
| > 1000 | CC(C)c1cnn2c(NCc3ccccc3NC(=O)c3ccccc3)nc(N3CCC(N)CC3)nc12 [Compound 87] |
| > 1000 | CC(C)c1cnn2c(NCc3ccccc3-c3nc4ccccc4n3C)nc(N3CCC(N)CC3)nc12 [Compound 96] |

Target: T2, CDK5/p25 (Homo sapiens, UniProt Q00535)
T2 construct: purchased Invitrogen PR8543B
T2 sequence (Q00535 whole entry): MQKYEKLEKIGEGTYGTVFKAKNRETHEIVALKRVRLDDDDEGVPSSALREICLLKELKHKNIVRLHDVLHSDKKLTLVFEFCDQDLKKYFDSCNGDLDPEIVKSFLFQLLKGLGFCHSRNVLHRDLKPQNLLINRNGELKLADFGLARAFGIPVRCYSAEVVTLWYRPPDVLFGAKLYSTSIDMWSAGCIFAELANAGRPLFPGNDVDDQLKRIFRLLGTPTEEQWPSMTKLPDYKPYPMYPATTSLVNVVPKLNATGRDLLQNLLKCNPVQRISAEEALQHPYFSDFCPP
T2 sequence (Q15078 99-307 partner limits assumed): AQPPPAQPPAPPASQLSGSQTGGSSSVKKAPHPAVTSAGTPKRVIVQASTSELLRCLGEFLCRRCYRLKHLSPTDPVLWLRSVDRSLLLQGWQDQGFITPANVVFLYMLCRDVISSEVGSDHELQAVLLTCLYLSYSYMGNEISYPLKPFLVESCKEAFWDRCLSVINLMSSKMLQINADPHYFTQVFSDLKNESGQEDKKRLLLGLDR
Assay: Enzymatic assay for CDK5 (FRET based LANCE Ultra kinase assay)
Assay type: biochemical
Conditions: read-out: CDK5 enzymatic activity (IC50 range)
In short: as §2

| IC50 [nM] | Compound |
| --- | --- |
| 100 to 1000 | CC(C)c1cnn2c(NCc3ccccc3NC(=O)c3ccccc3)nc(N3CCC(N)CC3)nc12 [Compound 87] |
| 100 to 1000 | CC(C)c1cnn2c(NCc3ccccc3-c3nc4ccccc4n3C)nc(N3CCC(N)CC3)nc12 [Compound 96] |

Tested on: MOLT-4
Assay: Cellular MOLT-4 viability assay (CellTiter-Glo, 72 hours)
Assay type: cell-based
Conditions: Homo sapiens, MOLT4 viability assay
In short: as §1

| IC50 [nM] | Compound |
| --- | --- |
| 1000 to 10000 | CC(C)c1cnn2c(NCc3ccccc3NC(=O)c3ccccc3)nc(N3CCC(N)CC3)nc12 [Compound 87] |
| 1000 to 10000 | CC(C)c1cnn2c(NCc3ccccc3-c3nc4ccccc4n3C)nc(N3CCC(N)CC3)nc12 [Compound 96] |
| 1000 to 10000 | CC(C)c1cnn2c(NCc3ccccc3-n3cc4cc(-c5ccccc5)ccc4n3)nc(N3CCC(N)CC3)nc12 [Compound 101] |
| 1000 to 10000 | CC(C)c1cnn2c(NCc3cccc4ccc(-n5cccn5)nc34)nc(N3CCC(N)CC3)nc12 [Compound 59] |

Tested on: RPMI-8226
Assay: Cellular RPMI-8226 viability assay (CellTiter-Glo, 72 hours)
Assay type: cell-based
Conditions: Homo sapiens
Procedure: All cell lines were routinely tested for mycoplasma.
The effect of the CDK7 inhibitor to inhibit the growth of target cancer cells was evaluated through the 72 hours time period of viability assay. Briefly, the candidate cell line ware plated in 96 well plate at the following density of cells respectively. […] DMSO solvent without compound served as a control and final DMSO concentration less than 0.1%. After 72 hours of incubation at 37° C., 5% CO2 incubator, cells were analyzed for the viability using the CellTiter-Glo Luminescent Cell Viability Assay (Promega, Cat #G7570). All viability assays were performed in duplicate and Luminescence was read using an Envision (Perkin Elmer, USA). Data was analyzed using XLfit software.

| IC50 [nM] | Compound |
| --- | --- |
| < 1000 | CC(C)c1cnn2c(NCc3ccccc3NC(=O)c3ccccc3)nc(N3CCC(N)CC3)nc12 [Compound 87] |
| < 1000 | CC(C)c1cnn2c(NCc3ccccc3-c3nc4ccccc4n3C)nc(N3CCC(N)CC3)nc12 [Compound 96] |
| 1000 to 10000 | CC(C)c1cnn2c(NCc3ccccc3-n3cc4cc(-c5ccccc5)ccc4n3)nc(N3CCC(N)CC3)nc12 [Compound 101] |
| 1000 to 10000 | CC(C)c1cnn2c(NCc3cccc4ccc(-n5cccn5)nc34)nc(N3CCC(N)CC3)nc12 [Compound 59] |

Target: T3, CDK7/Cyclin H/MNAT1 (Homo sapiens, UniProt P50613)
T3 construct: purchased Invitrogen PR6749B
T3 sequence (P50613 whole entry): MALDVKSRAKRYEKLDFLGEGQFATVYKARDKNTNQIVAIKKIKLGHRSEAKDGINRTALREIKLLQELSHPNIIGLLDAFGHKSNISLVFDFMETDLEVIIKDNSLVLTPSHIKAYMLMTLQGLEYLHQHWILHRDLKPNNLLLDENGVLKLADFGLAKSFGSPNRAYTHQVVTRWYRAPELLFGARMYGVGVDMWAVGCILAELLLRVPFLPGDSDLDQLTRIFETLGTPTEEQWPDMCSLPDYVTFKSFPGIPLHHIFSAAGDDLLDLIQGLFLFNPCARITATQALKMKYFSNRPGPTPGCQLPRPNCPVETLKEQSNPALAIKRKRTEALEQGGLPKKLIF
T3 sequence (P51946 whole entry partner): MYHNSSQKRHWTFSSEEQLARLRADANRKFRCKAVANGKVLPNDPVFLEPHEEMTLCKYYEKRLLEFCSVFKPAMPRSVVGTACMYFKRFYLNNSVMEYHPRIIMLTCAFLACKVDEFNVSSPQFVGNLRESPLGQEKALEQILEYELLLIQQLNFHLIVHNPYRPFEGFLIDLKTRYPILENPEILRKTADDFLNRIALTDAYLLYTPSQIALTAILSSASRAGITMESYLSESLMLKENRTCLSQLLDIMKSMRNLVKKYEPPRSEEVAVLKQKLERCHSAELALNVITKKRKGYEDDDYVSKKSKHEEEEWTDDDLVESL
T3 sequence (P51948 whole entry partner): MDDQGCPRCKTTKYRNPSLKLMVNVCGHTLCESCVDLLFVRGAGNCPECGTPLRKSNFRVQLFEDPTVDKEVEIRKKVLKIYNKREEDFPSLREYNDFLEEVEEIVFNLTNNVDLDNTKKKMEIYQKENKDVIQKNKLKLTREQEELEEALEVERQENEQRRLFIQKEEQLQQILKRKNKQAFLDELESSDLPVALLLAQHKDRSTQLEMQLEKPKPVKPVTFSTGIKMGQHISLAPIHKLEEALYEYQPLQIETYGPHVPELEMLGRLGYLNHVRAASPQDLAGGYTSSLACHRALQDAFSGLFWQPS
Assay: Enzymatic assay for CDK7 (FRET based LANCE Ultra kinase assay)
Assay type: biochemical
Conditions: CDK7 over CDK1
In short: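 LANCE Ultra TR-FRET kinase assay using a ULight-labeled peptide substrate and a Eu-labeled anti-phospho antibody, with ATP at its Km. Purified CDK/cyclin complex was added to compound after brief centrifugation.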

| CDK1/CDK7: Selectivity of CDK7 inhibition over CDK1 inhibition | Compound |
| --- | --- |
| A (A=greater than 200 fold) | CC(C)c1cnn2c(NCc3ccccc3NC(=O)c3ccccc3)nc(N3CCC(N)CC3)nc12 [Compound 87] |
| A (A=greater than 200 fold) | CC(C)c1cnn2c(NCc3ccccc3-c3nc4ccccc4n3C)nc(N3CCC(N)CC3)nc12 [Compound 96] |

Same assay, conditions: CDK7 over CDK2

| CDK2/CDK7: Selectivity of CDK7 inhibition over CDK2 inhibition | Compound |
| --- | --- |
| A (A=greater than 200 fold) | CC(C)c1cnn2c(NCc3ccccc3NC(=O)c3ccccc3)nc(N3CCC(N)CC3)nc12 [Compound 87] |
| A (A=greater than 200 fold) | CC(C)c1cnn2c(NCc3ccccc3-c3nc4ccccc4n3C)nc(N3CCC(N)CC3)nc12 [Compound 96] |

Same assay, conditions: CDK7 over CDK5

| Compound | CDK5/CDK7: Selectivity of CDK7 inhibition over CDK5 inhibition |
| --- | --- |
| CC(C)c1cnn2c(NCc3ccccc3NC(=O)c3ccccc3)nc(N3CCC(N)CC3)nc12 [Compound 87] | B (B=less than 200 fold, but greater than 20 fold) |
| CC(C)c1cnn2c(NCc3ccccc3-c3nc4ccccc4n3C)nc(N3CCC(N)CC3)nc12 [Compound 96] | B (B=less than 200 fold, but greater than 20 fold) |

Same assay, conditions: read-out: CDK7 enzymatic activity (IC50 range)

| IC50 [nM] | Compound |
| --- | --- |
| < 100 | CC(C)c1cnn2c(NCc3ccccc3NC(=O)c3ccccc3)nc(N3CCC(N)CC3)nc12 [Compound 87] |
| < 100 | CC(C)c1cnn2c(NCc3ccccc3-c3nc4ccccc4n3C)nc(N3CCC(N)CC3)nc12 [Compound 96] |

Target: T4, CDK1/Cyclin B (Homo sapiens, UniProt P06493)
T4 construct: purchased Invitrogen PR4768C
T4 sequence (P06493 whole entry): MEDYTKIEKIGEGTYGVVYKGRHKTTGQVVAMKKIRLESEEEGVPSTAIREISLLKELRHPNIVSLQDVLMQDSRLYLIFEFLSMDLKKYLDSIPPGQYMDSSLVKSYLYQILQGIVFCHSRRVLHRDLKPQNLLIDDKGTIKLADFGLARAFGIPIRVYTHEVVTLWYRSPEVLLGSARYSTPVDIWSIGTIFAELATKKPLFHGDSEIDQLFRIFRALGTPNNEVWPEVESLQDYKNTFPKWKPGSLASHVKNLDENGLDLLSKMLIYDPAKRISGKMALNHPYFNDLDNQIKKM
T4 sequence (P14635 whole entry partner): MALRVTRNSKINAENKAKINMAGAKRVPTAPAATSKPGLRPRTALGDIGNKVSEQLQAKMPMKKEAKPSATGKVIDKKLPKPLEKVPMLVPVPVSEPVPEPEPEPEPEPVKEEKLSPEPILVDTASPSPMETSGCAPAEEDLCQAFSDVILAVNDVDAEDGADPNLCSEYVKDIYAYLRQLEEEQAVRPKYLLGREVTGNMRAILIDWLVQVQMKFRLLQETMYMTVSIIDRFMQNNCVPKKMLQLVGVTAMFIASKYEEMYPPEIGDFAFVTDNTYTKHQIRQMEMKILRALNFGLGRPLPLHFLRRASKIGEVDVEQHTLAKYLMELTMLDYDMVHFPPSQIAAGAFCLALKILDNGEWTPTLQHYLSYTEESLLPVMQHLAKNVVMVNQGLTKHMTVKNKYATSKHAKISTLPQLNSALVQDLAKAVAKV
Assay: Enzymatic assay for CDK1 (FRET based LANCE Ultra kinase assay)
Assay type: biochemical
Conditions: read-out: CDK1 enzymatic activity (IC50 range)
In short: as §2

| IC50 [nM] | Compound |
| --- | --- |
| > 1000 | CC(C)c1cnn2c(NCc3ccccc3NC(=O)c3ccccc3)nc(N3CCC(N)CC3)nc12 [Compound 87] |
| > 1000 | CC(C)c1cnn2c(NCc3ccccc3-c3nc4ccccc4n3C)nc(N3CCC(N)CC3)nc12 [Compound 96] |
